Measured values published in ChEMBL document CHEMBL4308841, “Synthesis, in vitro antiproliferative activity, and kinase inhibitory effects of pyrazole-containing diarylureas and diarylamides” (Eur J Med Chem, 2018).

Legend:
SNB-75 = test: Growth inhibition of human SNB75 cells incubated for 48 hrs by sulforhodamine B assay; format: functional, cell-based; conditions: SNB-75, 48 h
A498 = test: Growth inhibition of human A498 cells assessed as cell growth at 0.01 uM incubated for 48 hrs by sulforhodamine B assay relative to control; format: functional; conditions: A498, 48 h, read-out: Activity
SF-295 [1] = test: Growth inhibition of human SF295 cells assessed as cell growth at 100 uM incubated for 48 hrs by sulforhodamine B assay relative to control; format: functional; conditions: SF-295, 48 h, read-out: Activity
COLO 205 [2] = test: Growth inhibition of human COLO205 cells assessed as cell growth at 100 uM incubated for 48 hrs by sulforhodamine B assay relative to control; format: functional; conditions: COLO 205, 48 h, read-out: Activity
Malme-3M [3] = test: Growth inhibition of human MALME-3M cells assessed as cell growth at 0.01 uM incubated for 48 hrs by sulforhodamine B assay relative to control; format: functional; conditions: read-out: Activity
OVCAR-5 [4] = test: Growth inhibition of human OVCAR5 cells assessed as cell growth at 100 uM incubated for 48 hrs by sulforhodamine B assay relative to control; format: functional; conditions: OVCAR-5, 48 h, read-out: Activity
Malme-3M [5] = test: Growth inhibition of human MALME-3M cells assessed as cell growth at 0.1 uM incubated for 48 hrs by sulforhodamine B assay relative to control; format: functional; conditions: read-out: Activity
MDA-MB-231 [6] = test: Growth inhibition of human MDA-MB-231 cells assessed as cell growth at 0.01 uM incubated for 48 hrs by sulforhodamine B assay relative to control; format: functional; conditions: MDA-MB-231, 48 h, read-out: Activity
MOLT-4 = test: Growth inhibition of human MOLT4 cells assessed as cell growth at 1 uM incubated for 48 hrs by sulforhodamine B assay relative to control; format: functional; conditions: MOLT-4, 48 h, read-out: Activity
OVCAR-5 [7] = test: Growth inhibition of human OVCAR5 cells incubated for 48 hrs by sulforhodamine B assay; format: functional, cell-based; conditions: OVCAR-5, 48 h
SN12C = test: Growth inhibition of human SN12C cells incubated for 48 hrs by sulforhodamine B assay; format: functional, cell-based
CAKI-1 = test: Growth inhibition of human Caki1 cells assessed as cell growth at 100 uM incubated for 48 hrs by sulforhodamine B assay relative to control; format: functional; conditions: CAKI-1, 48 h, read-out: Activity
T47D = test: Growth inhibition of human T47D cells assessed as cell growth at 0.1 uM incubated for 48 hrs by sulforhodamine B assay relative to control; format: functional; conditions: read-out: Activity
MDA-MB-231 [8] = test: Growth inhibition of human MDA-MB-231 cells assessed as cell growth at 0.1 uM incubated for 48 hrs by sulforhodamine B assay relative to control; format: functional; conditions: MDA-MB-231, 48 h, read-out: Activity
HCT-15 = test: Growth inhibition of human HCT15 cells assessed as cell growth at 100 uM incubated for 48 hrs by sulforhodamine B assay relative to control; format: functional; conditions: HCT-15, 48 h, read-out: Activity
SK-MEL-2 = test: Growth inhibition of human SK-MEL-2 cells assessed as cell growth at 0.1 uM incubated for 48 hrs by sulforhodamine B assay relative to control; format: functional; conditions: SK-MEL-2, 48 h, read-out: Activity
OVCAR-3 = test: Growth inhibition of human OVCAR3 cells assessed as cell growth at 1 uM incubated for 48 hrs by sulforhodamine B assay relative to control; format: functional; conditions: OVCAR-3, 48 h, read-out: Activity
NCI-H522 = test: Growth inhibition of human NCI-H522 cells assessed as cell growth at 1 uM incubated for 48 hrs by sulforhodamine B assay relative to control; format: functional; conditions: NCI-H522, 48 h, read-out: Activity
SR = test: Growth inhibition of human SR cells assessed as cell growth at 100 uM incubated for 48 hrs by sulforhodamine B assay relative to control; format: functional; conditions: read-out: Activity
UACC-257 [9] = test: Growth inhibition of human UACC257 cells assessed as cell growth at 0.01 uM incubated for 48 hrs by sulforhodamine B assay relative to control; format: functional; conditions: UACC-257, 48 h, read-out: Activity
COLO 205 [10] = test: Growth inhibition of human COLO205 cells incubated for 48 hrs by sulforhodamine B assay; format: functional, cell-based; conditions: COLO 205, 48 h
RPMI-8226 = test: Growth inhibition of human RPMI8226 cells assessed as cell growth at 100 uM incubated for 48 hrs by sulforhodamine B assay relative to control; format: functional; conditions: RPMI-8226, 48 h, read-out: Activity
NCI-H460 = test: Growth inhibition of human NCI-H460 cells assessed as cell growth at 1 uM incubated for 48 hrs by sulforhodamine B assay relative to control; format: functional; conditions: NCI-H460, 48 h, read-out: Activity
SF-295 [11] = test: Growth inhibition of human SF295 cells incubated for 48 hrs by sulforhodamine B assay; format: functional, cell-based; conditions: SF-295, 48 h
NCI/ADR-RES = test: Growth inhibition of human NCI/ADR-RES cells assessed as cell growth at 1 uM incubated for 48 hrs by sulforhodamine B assay relative to control; format: functional; conditions: read-out: Activity
ACHN = test: Growth inhibition of human ACHN cells assessed as cell growth at 1 uM incubated for 48 hrs by sulforhodamine B assay relative to control; format: functional; conditions: read-out: Activity
UACC-257 [12] = test: Growth inhibition of human UACC257 cells assessed as cell growth at 0.1 uM incubated for 48 hrs by sulforhodamine B assay relative to control; format: functional; conditions: UACC-257, 48 h, read-out: Activity
IGROV-1 = test: Growth inhibition of human IGROV1 cells incubated for 48 hrs by sulforhodamine B assay; format: functional, cell-based; conditions: IGROV-1, 48 h
NCI-H226 = test: Growth inhibition of human NCI-H226 cells assessed as cell growth at 1 uM incubated for 48 hrs by sulforhodamine B assay relative to control; format: functional; conditions: NCI-H226, 48 h, read-out: Activity
[13] = read-out: LC50 (the source's name)
[14] = read-out: pLC50 (the source's name) (converted)

SMILES: O=C(Nc1cccc(-n2cc(-c3ccncc3)c(-c3cc(O)cc(Cl)c3)n2)c1)c1cc(C(F)(F)F)cc(C(F)(F)F)c1
- GI50 (SNB-75; read-out: GI50): 2.3 µM
- CC50 (SNB-75; [13]): > 100 µM
- TGI (SNB-75; read-out: TGI): > 100 µM
- GI50 (SNB-75; read-out: pGI50 (converted)): 2.82 µM
- CC50 (SNB-75; [14]): > 100 µM
- TGI (SNB-75; read-out: pTGI (converted)): > 100 µM
- growth at 0.01 µM (A498): 53%
- growth at 100 µM (SF-295 [1]): -38%
- growth at 100 µM (COLO 205 [2]): -7%
- growth at 0.01 µM (Malme-3M [3]): 97%
- growth at 100 µM (OVCAR-5 [4]): -32%
- growth at 0.1 µM (Malme-3M [5]): 52%
- growth at 0.01 µM (MDA-MB-231 [6]): 98%
- growth at 1 µM (MOLT-4): 78%
- GI50 (OVCAR-5 [7]; read-out: GI50): 8.23 µM
- CC50 (OVCAR-5 [7]; [13]): > 100 µM
- TGI (OVCAR-5 [7]; read-out: TGI): 38.4 µM
- GI50 (OVCAR-5 [7]; read-out: pGI50 (converted)): 8.32 µM
- CC50 (OVCAR-5 [7]; [14]): > 100 µM
- TGI (OVCAR-5 [7]; read-out: pTGI (converted)): 38 µM
- GI50 (SN12C; read-out: GI50): 4.77 µM
- LC50 (SN12C; read-out: LC50): > 100 µM
- TGI (SN12C; read-out: TGI): > 100 µM
- GI50 (SN12C; read-out: pGI50 (converted)): 4.79 µM
- LC50 (SN12C; read-out: pLC50 (converted)): > 100 µM
- TGI (SN12C; read-out: pTGI (converted)): > 100 µM
- growth at 100 µM (CAKI-1): 7%
- growth at 0.1 µM (T47D): 93%
- growth at 0.1 µM (MDA-MB-231 [8]): 94%
- growth at 100 µM (HCT-15): -47%
- growth at 0.1 µM (SK-MEL-2): 93%
- growth at 1 µM (OVCAR-3): 96%
- growth at 1 µM (NCI-H522): 54%
- growth at 100 µM (SR): -18%
- growth at 0.01 µM (UACC-257 [9]): 92%
- GI50 (COLO 205 [10]; read-out: GI50): 2.32 µM
- CC50 (COLO 205 [10]; [13]): > 100 µM
- TGI (COLO 205 [10]; read-out: TGI): 57.4 µM
- GI50 (COLO 205 [10]; read-out: pGI50 (converted)): 2.34 µM
- CC50 (COLO 205 [10]; [14]): > 100 µM
- TGI (COLO 205 [10]; read-out: pTGI (converted)): 5.75 µM
- growth at 100 µM (RPMI-8226): -4%
- growth at 1 µM (NCI-H460): 92%
- GI50 (SF-295 [11]; read-out: GI50): 2.37 µM
- CC50 (SF-295 [11]; [13]): > 100 µM
- TGI (SF-295 [11]; read-out: TGI): 71.5 µM
- GI50 (SF-295 [11]; read-out: pGI50 (converted)): 2.4 µM
- CC50 (SF-295 [11]; [14]): > 100 µM
- TGI (SF-295 [11]; read-out: pTGI (converted)): 7.08 µM
- growth at 1 µM (NCI/ADR-RES): 94%
- growth at 1 µM (ACHN): 99%
- growth at 0.1 µM (UACC-257 [12]): 98%
- GI50 (IGROV-1; read-out: GI50): 7.96 µM
- CC50 (IGROV-1; [13]): > 100 µM
- TGI (IGROV-1; read-out: TGI): > 100 µM
- GI50 (IGROV-1; read-out: pGI50 (converted)): 7.94 µM
- CC50 (IGROV-1; [14]): > 100 µM
- TGI (IGROV-1; read-out: pTGI (converted)): > 100 µM
- growth at 1 µM (NCI-H226): 91%
